According to article PMC6435542 (Bioscience Reports, 2018):

Target: T1, CFTR-associated ligand (CAL) PDZ domain (Homo sapiens, UniProt Q9HD26)
T1 construct: gene GOPC; CAL PDZ domain (CALP; UniProt Q9HD26-2)
Assay: MALDI-TOF MS of covalent adduct; no effect on peptide affinity by FP
Assay type: binding

Q: For CCN1C(=O)C=CC1=O [EM, N-ethyl-maleimide], which EM is on record?
A: 90–92 % covalent modification
